Reference: the NIST ThermoML archive (doi:10.1021/je049788h)

Assay: xn = mol fraction of the nth substance listed
Conditions: 101.3 kPa, Liquid; for viscosity: Capillary tube (Ostwald / Ubbelohde) method; for mass density: Vibrating tube method

COCCOCCOCCOCCOC [2,5,8,11,14-pentaoxapentadecane] + O
Conditions | mass density, 298.15 K [kg/m3] | mass density, 313.15 K [kg/m3] | mass density, 323.15 K [kg/m3] | mass density, 333.15 K [kg/m3] | mass density, 343.15 K [kg/m3] | viscosity, 298.15 K [mPa·s] | viscosity, 313.15 K [mPa·s] | viscosity, 323.15 K [mPa·s] | viscosity, 333.15 K [mPa·s] | viscosity, 343.15 K [mPa·s]
x1 = 0.0199 | 1013.95 | 1006.73 | 1001.25 | 995.13 | 988.58 | 3.11 | 2.11 | 1.71 | 1.41 | 1.18
x1 = 0.051 | 1020.21 | 1011.89 | 1005.7 | 999.35 | 991.92 | 4.04 | 2.64 | 2.12 | 1.69 | 1.41
x1 = 0.1066 | 1038.9 | 1025.7 | 1016.67 | 1007.47 | 998.09 | 6.17 | 3.62 | 2.7 | 2.08 | 1.67
x1 = 0.195 | 1033.66 | 1019.8 | 1010.4 | 1000.92 | 991.28 | 6.22 | 3.77 | 2.86 | 2.24 | 1.8
x1 = 0.3008 | 1026.07 | 1012.12 | 1002.75 | 993.27 | 983.67 | 5.29 | 3.39 | 2.63 | 2.12 | 1.73
x1 = 0.4088 | 1020.42 | 1006.46 | 997.07 | 987.6 | 978.07 | 4.59 | 3.08 | 2.42 | 1.97 | 1.65
x1 = 0.5116 | 1016.56 | 1002.6 | 993.21 | 983.77 | 974.27 | 4.14 | 2.82 | 2.26 | 1.86 | 1.56
x1 = 0.6252 | 1013.52 | 999.55 | 990.2 | 980.79 | 971.34 | 3.81 | 2.65 | 2.15 | 1.78 | 1.51
x1 = 0.7016 | 1011.64 | 997.66 | 988.33 | 978.95 | 969.56 | 3.65 | 2.57 | 2.1 | 1.75 | 1.5
x1 = 0.8037 | 1009.81 | 995.86 | 985.65 | 977.24 | 967.88 | 3.51 | 2.49 | 2.06 | 1.73 | 1.47
x1 = 0.9044 | 1008.44 | 994.51 | 985.23 | 975.95 | 966.66 | 3.41 | 2.44 | 2.01 | 1.69 | 1.45
x1 = 0.9505 | 1007.83 | 993.92 | 984.67 | 975.4 | 966.13 | 3.37 | 2.42 | 2.002 | 1.69 | 1.41
x1 = 1 | 1006.65 | 993.28 | 984.05 | 974.8 | 965.55 | 3.38 | 2.42 | 2.004 | 1.69 | 1.42
